Source: ChEMBL document CHEMBL1201862, “PubChem BioAssay data set” (2004)
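Exposure lasted 48 hours, with cells grown in 96-well plates and compounds tested at five concentrations. The concentration for 50% growth inhibition is given as GI50.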 Calls of active or inactive are those of the source. No stated cut-off is given here; in the data, active = GI50 up to about 1.1 µM and inactive = higher.

Key:
Assay in all cases: NCI anticancer screen, dose series, 48 h
OVCAR-5 = tested on: OVCAR-5
SF-295 = tested on: SF-295
SNB-19 = tested on: SNB-19
A549 = tested on: A549
HT-29 = tested on: HT-29
SF-539 = tested on: SF-539
HOP-62 = tested on: HOP-62
SK-MEL-28 = tested on: SK-MEL-28
SN12C = tested on: SN12C
IGROV-1 = tested on: IGROV-1
NCI-H460 = tested on: NCI-H460
SNB-75 = tested on: SNB-75
K562 = tested on: K562
SNB-78 = tested on: SNB-78
COLO 205 = tested on: COLO 205
HCT-15 = tested on: HCT-15
SF-268 = tested on: SF-268
T47D = tested on: T47D
MDA-MB-435 = tested on: MDA-MB-435
NCI/ADR-RES = tested on: NCI/ADR-RES

Structure (SMILES) | GI50 (OVCAR-5) | GI50 (SF-295) | GI50 (SNB-19) | GI50 (A549) | GI50 (HT-29) | GI50 (SF-539) | GI50 (HOP-62) | GI50 (SK-MEL-28) | GI50 (SN12C) | GI50 (IGROV-1) | GI50 (NCI-H460) | GI50 (SNB-75) | GI50 (K562) | GI50 (SNB-78) | GI50 (COLO 205) | GI50 (HCT-15) | GI50 (SF-268) | GI50 (T47D) | GI50 (MDA-MB-435) | GI50 (NCI/ADR-RES)
CC(C)(CN1CCCCC1)C(=O)CC(SCCN)c1ccc(Cl)cc1 (centres undefined) | 3.66 µM (inactive) | 3.22 µM (inactive) | 1.78 µM (inactive) | 2.88 µM (inactive) | 1.95 µM (inactive) | 1.66 µM (inactive) | 3.78 µM (inactive) | 3.43 µM (inactive) | 1.49 µM (inactive) | 2.7 µM (inactive) | 2.11 µM (inactive) | 1.98 µM (inactive) | 1.18 µM (inactive) | 2.56 µM (inactive) | 1.6 µM (inactive) | 1.63 µM | 2.78 µM (inactive) | – | – | –
O=c1ncccn1C1OC(CO)C(O)C1O (centres undefined) | > 100 µM (inactive) | – | 91.8 µM (inactive) | > 100 µM (inactive) | > 100 µM (inactive) | – | – | > 100 µM (inactive) | > 100 µM (inactive) | > 100 µM (inactive) | > 100 µM (inactive) | > 100 µM (inactive) | > 100 µM (inactive) | > 100 µM (inactive) | > 100 µM (inactive) | > 100 µM | > 100 µM (inactive) | – | – | –
[O-][n+]1c2c([n+]([O-])c3ccccc31)CCCCCCCCCC2 | – | > 100 µM (inactive) | > 100 µM (inactive) | > 100 µM (inactive) | > 100 µM (inactive) | > 100 µM (inactive) | – | > 100 µM (inactive) | > 100 µM (inactive) | > 100 µM (inactive) | – | > 100 µM (inactive) | 69.7 µM (inactive) | > 100 µM (inactive) | – | > 100 µM | > 100 µM (inactive) | – | – | –
N=C(N)NS(=O)(=O)c1ccc(NC(=O)c2ccc(Cl)c3c(Nc4ccc(S(=O)(=O)N=C(N)N)cc4)c4ccccc4nc23)cc1 | > 100 µM (inactive) | > 100 µM (inactive) | 53.3 µM (inactive) | > 100 µM (inactive) | > 100 µM (inactive) | 53.7 µM (inactive) | 53.2 µM (inactive) | 61 µM (inactive) | > 100 µM (inactive) | 76.4 µM (inactive) | > 100 µM (inactive) | 24.5 µM (inactive) | 38.1 µM (inactive) | 45 µM (inactive) | 91.4 µM (inactive) | > 100 µM | > 100 µM (inactive) | – | – | –
c1ccc(CNn2nnc3ccccc32)cc1 | > 100 µM (inactive) | > 100 µM (inactive) | > 100 µM (inactive) | > 100 µM (inactive) | > 100 µM (inactive) | – | > 100 µM (inactive) | > 100 µM (inactive) | > 100 µM (inactive) | > 100 µM (inactive) | > 100 µM (inactive) | > 100 µM (inactive) | > 100 µM (inactive) | > 100 µM (inactive) | > 100 µM (inactive) | > 100 µM | > 100 µM (inactive) | – | – | –
O=C1C2c3[nH]c4ccccc4c3C3CCCCC3C2C(=O)N1c1ccccc1 (centres undefined) | > 100 µM (inactive) | 48.9 µM (inactive) | 84.1 µM (inactive) | > 100 µM (inactive) | > 100 µM (inactive) | 34 µM (inactive) | – | > 100 µM (inactive) | > 100 µM (inactive) | 72.1 µM (inactive) | > 100 µM (inactive) | 11.3 µM (inactive) | 63.8 µM (inactive) | 38.3 µM (inactive) | > 100 µM (inactive) | > 100 µM | 72.9 µM (inactive) | – | – | –
CC(=O)O[C@]12CCCC1C1(O)C(O)CCCC12 (some centres undefined) | – | > 100 µM (inactive) | > 100 µM (inactive) | > 100 µM (inactive) | > 100 µM (inactive) | – | > 100 µM (inactive) | > 100 µM (inactive) | > 100 µM (inactive) | – | > 100 µM (inactive) | > 100 µM (inactive) | > 100 µM (inactive) | > 100 µM (inactive) | > 100 µM (inactive) | > 100 µM | > 100 µM (inactive) | – | – | –
Cc1cc2c3ccccc3[nH]c2c2ccnc(C)c12 | 7.36 µM (inactive) | 20 µM (inactive) | 18.6 µM (inactive) | 8.28 µM (inactive) | 3.55 µM (inactive) | 2.76 µM (inactive) | 13.6 µM (inactive) | 1.77 µM (inactive) | 5.56 µM (inactive) | 15.2 µM (inactive) | 2.35 µM (inactive) | 7.28 µM (inactive) | 2.22 µM (inactive) | – | 1.94 µM (inactive) | 2.34 µM | 17.6 µM (inactive) | 16.7 µM (inactive) | 1.65 µM (inactive) | 14.7 µM (inactive)
O=Cc1ccccc1COC(=O)c1cc(C(=O)OCc2ccccc2C=O)c(C(=O)OCc2ccccc2C=O)cc1C(=O)OCc1ccccc1C=O | > 100 µM (inactive) | 64.6 µM (inactive) | > 100 µM (inactive) | > 100 µM (inactive) | > 100 µM (inactive) | > 100 µM (inactive) | – | > 100 µM (inactive) | > 100 µM (inactive) | > 100 µM (inactive) | > 100 µM (inactive) | 21.5 µM (inactive) | 39.8 µM (inactive) | 40.7 µM (inactive) | > 100 µM (inactive) | > 100 µM | 69.2 µM (inactive) | – | – | –
Cc1c(C)c([N+](=O)[O-])c2c(c1N)C(=O)c1ccccc1C2=O | > 100 µM (inactive) | > 100 µM (inactive) | > 100 µM (inactive) | > 100 µM (inactive) | 55.2 µM (inactive) | > 100 µM (inactive) | > 100 µM (inactive) | > 100 µM (inactive) | > 100 µM (inactive) | > 100 µM (inactive) | – | > 100 µM (inactive) | > 100 µM (inactive) | > 100 µM (inactive) | 58.9 µM (inactive) | > 100 µM | > 100 µM (inactive) | – | – | –
CCCCCCCCCCCCCC(=O)N(CCCCCCCCC)CC(O)C(O)C(OC1OC(CO)C(O)C(O)C1O)C(O)CO (centres undefined) | 32.9 µM (inactive) | 20.7 µM (inactive) | 24.5 µM (inactive) | 22.3 µM (inactive) | 18.5 µM (inactive) | 22 µM (inactive) | 24.6 µM (inactive) | 18.1 µM (inactive) | 19.8 µM (inactive) | 20.2 µM (inactive) | 20.1 µM (inactive) | 19.5 µM (inactive) | 19.9 µM (inactive) | – | 20.5 µM (inactive) | 23.6 µM | 19.1 µM (inactive) | 19.1 µM (inactive) | 19.8 µM (inactive) | 18.8 µM (inactive)
COc1nc(N(C)C)nc2c1[n+](C)cn2C [HETEROMINE A] | > 100 µM (inactive) | 38.9 µM (inactive) | 25.1 µM (inactive) | 46.9 µM (inactive) | > 100 µM (inactive) | 52.6 µM (inactive) | > 100 µM (inactive) | 88.9 µM (inactive) | 72.8 µM (inactive) | > 100 µM (inactive) | 44.2 µM (inactive) | > 100 µM (inactive) | 18.6 µM (inactive) | – | 30.8 µM (inactive) | > 100 µM | 31.8 µM (inactive) | 41.5 µM (inactive) | 74.8 µM (inactive) | > 100 µM (inactive)
C1=CN2C[n+]3cccc(OCc4ccccc4)c3N=C2C(OCc2ccccc2)=C1 | 52 µM (inactive) | 6.84 µM (inactive) | 5.18 µM (inactive) | 19.5 µM (inactive) | 8.04 µM (inactive) | 4.25 µM (inactive) | 17.6 µM (inactive) | 14.2 µM (inactive) | 3.43 µM (inactive) | 11.5 µM (inactive) | 32.6 µM (inactive) | 20.1 µM (inactive) | < 0.01 µM (active) | – | 3.88 µM (inactive) | > 100 µM | 6.25 µM (inactive) | 12.8 µM (inactive) | 14.4 µM (inactive) | > 100 µM (inactive)
O=C1CS[C@@](CC(c2ccc(Cl)cc2)c2ccc(Cl)cc2)(c2ccc(Cl)cc2)N1 | > 100 µM (inactive) | 5.08 µM (inactive) | 33.2 µM (inactive) | 5.97 µM (inactive) | 9.55 µM (inactive) | 22.8 µM (inactive) | 14.2 µM (inactive) | 43 µM (inactive) | 2.16 µM (inactive) | 26.4 µM (inactive) | 9.1 µM (inactive) | 33.5 µM (inactive) | 5.15 µM (inactive) | – | 4.74 µM (inactive) | 10.8 µM | 17.5 µM (inactive) | 4.28 µM (inactive) | 14 µM (inactive) | 8.17 µM (inactive)
COc1ccc(N2C(=O)C3ON(C(C(N)=O)c4ccccc4)C(c4ccc(-c5ccccc5)cc4)C3C2=O)cc1 (centres undefined) | > 50 µM (inactive) | > 50 µM (inactive) | > 50 µM (inactive) | > 50 µM (inactive) | 24.8 µM (inactive) | > 50 µM (inactive) | > 50 µM (inactive) | > 50 µM (inactive) | > 50 µM (inactive) | 48.8 µM (inactive) | > 50 µM (inactive) | > 50 µM (inactive) | > 50 µM (inactive) | – | 25.2 µM (inactive) | > 50 µM | > 50 µM (inactive) | > 50 µM (inactive) | > 50 µM (inactive) | > 50 µM (inactive)
O=c1c2c(c1=O)-c1ccccc1CN2 | > 100 µM (inactive) | – | > 100 µM (inactive) | > 100 µM (inactive) | > 100 µM (inactive) | > 100 µM (inactive) | > 100 µM (inactive) | > 100 µM (inactive) | > 100 µM (inactive) | > 100 µM (inactive) | > 100 µM (inactive) | > 100 µM (inactive) | > 100 µM (inactive) | > 100 µM (inactive) | > 100 µM (inactive) | > 100 µM | > 100 µM (inactive) | – | – | –
